Our source for the IC50 values is patent US20140329858A1, “Cyclic Urea Derivatives As Androgen Receptor Antagonists” (priority 2011, published 2014).

A value given as a limit tells only on which side of the number the result lay.

In the first experiment the test system is Vcap cells. The experiment is described as follows: Dihydrotestosterone (DHT) mediated XTT cell proliferation assay for screening AR antagonists using Vcap cells. The conditions noted are these: Homo sapiens, 240 h, in the presence of 0.2 nM DHT, XTT readout on Day 10, IC50 curves from 8 concentrations. Format: cell-based. A digest of the protocol:
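VCaP cells, starved 5 days in phenol red-free DMEM with 8% charcoal-stripped serum, were plated and treated on Day 4 with compound (0.1 nM-30 μM, 8 concentrations) plus 0.2 nM DHT, redosed Day 7. On Day 10 viability was read by XTT at 465 nm; IC50 from sigmoidal dose-response fit.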
Background: Tetrazolium assays rely on reduction of a dye to a coloured formazan, in cell work by metabolically active cells.
As a reminder, the IC50 is the concentration that gives 50% inhibition. For the compound `CNC(=O)c1ccc(N2C(=O)N(c3ccc(C#N)c(C(F)(F)F)c3)[C@@H]3CCCC[C@H]32)cc1C` (racemic) [Example 39, Trans-4-(3-(4-cyano-3-(trifluoromethyl)phenyl)-2-oxooctahydro-1H-benzo[d]im-idazol-1-yl)-N,2-dimethylbenzamide (±)], the IC50 was 399 nM. Take `N#Cc1ccc(CN2C(=O)N(c3ccc(C#N)c(C(F)(F)F)c3)[C@@H]3CCCC[C@H]32)cn1` (racemic) [Example 48, Trans-5-((-(4-cyano-3-(trifluoromethyl)phenyl)-2-oxooctahydro-1H-benzo[d]im-idazol-1-yl)methyl)picolinonitrile (±)]: the IC50 was over 10000 nM. Still for that read-out and setting: the value for `N#Cc1ccc(N2C(=O)N(c3ccc(C(=O)O)c(F)c3)[C@@H]3CCCC[C@H]32)cc1C(F)(F)F` (racemic) [Example 17, Trans-4-(3-(4-cyano-3-(trifluoromethyl)phenyl)-2-oxooctahydro-1H-benzo[d]im-idazol-1-yl)-2-fluorobenzoic acid (±)] was over 10000 nM; that for `CNC(=O)c1ccc(N2C(=O)N(c3ccc(C#N)c(C(F)(F)F)c3)[C@H]3C=CCC[C@@H]32)cc1F` (racemic) [Example 86, trans-4-(3-(4-cyano-3-(trifluoromethyl)phenyl)-2-oxo-2,3,3a,6,7,7a-hexahydro-1H-benzo[c]imidazol-1-yl)-2-fluoro-N-methylbenzamide (±)] was 43 nM; that for `CC(=O)c1ccc(N2C(=O)N(c3ccc(C#N)c(C(F)(F)F)c3)[C@H]3CCCC[C@@H]32)cc1F` [Example 45, 4-((3aS,7aS)-3-(4-acetyl-3-fluorophenyl)-2-oxooctahydro-1H-benzo[d]imidazol-1-yl)-2-(trifluoromethyl)benzonitrile] was 1020 nM.

For `CNC(=O)c1ccc(N2C(=O)N(c3ccc(C#N)c(C(F)(F)F)c3)[C@@H]3CCC(O)C[C@H]32)cc1F` (mixture of isomers) [Example 82, Trans-4-(3-(4-cyano-3-(trifluoromethyl)phenyl)-6-hydroxy-2-oxooctahydro-1H-benzo[d]imidazol-1-yl)-2-fluoro-N-methylbenzamide (±)], the IC50 is 583 nM. For the compound `N#Cc1ccc(N2C(=O)N(c3ccc(C#N)c(C(F)(F)F)c3)[C@@H]3CCCC[C@H]32)cc1C(F)(F)F` (racemic) [Example 2, Trans-4,4′-(2-oxohexahydro-1H-benzo[d]imidazole-1,3(2H)-diyl)bis(2-(trifluoromethyl)benzonitrile) (±)], the IC50 amounted to 240 nM. As to `N#Cc1ccc(N2C(=O)N(Cc3ccc(Cl)nc3)[C@@H]3CCCC[C@H]32)cc1C(F)(F)F` (racemic) [Example 47, Trans-4-(3-((6-chloropyridin-3-yl)methyl)-2-oxooctahydro-1H-benzo[d]imidazol-1-yl)-2-(trifluoromethyl)benzonitrile (±)], the IC50 was 61.6 nM. As for `CNC(=O)c1ccc(N2C(=O)N(c3ccc(C#N)c(C(F)(F)F)c3)[C@@H]3CCCCC[C@H]32)cc1F` (racemic) [Example 80, Trans-4-(3-(4-cyano-3-(trifluoromethyl)phenyl)-2-oxooctahydrocyclohepta[d]imidazol-1(2H)-yl)-2-fluoro-N-methylbenzamide (±)], the IC50 amounted to 254 nM. Turning to `CNC(=O)c1ccc(N2C(=O)N(c3ccc(C#N)c(C(F)(F)F)c3)[C@H]3CCCC[C@@H]32)cn1` [Example 54, 5-((3aS,7aS)-3-(4-cyano-3-(trifluoromethyl)phenyl)-2-oxooctahydro-1H-benzo[d]imidazol-1-yl)-N-methylpicolinamide], the IC50 came out at 245 nM.

The same experiment, now with this note: in the presence of 0.2 nM DHT, XTT readout on Day 10, IC50 curves from 8 concentrations.
On to `CNC(=O)c1ccc(N2C(=O)N(c3ccc(C#N)c(C(F)(F)F)c3)[C@@H]3COCC[C@H]32)cc1F` (relative stereo) [Example 71a, Trans-4-{3-[4-Cyano-3-(trifluoromethyl)phenyl]-2-oxo-octahydropyrano[3,4-d]imidazolidin-1-yl}-2-fluoro-N-methylbenzamide (+)], for which the IC50 was over 10000 nM. For `CNC(=O)c1ccc(N2C(=O)N(c3ccc(C#N)c(C(F)(F)F)c3)[C@@H]3CC=CC[C@H]32)cc1F` (relative stereo) [Example 83b], the IC50 was determined as 31.9 nM.
